We go through three molecules from patent US20200023038A1, “METHOD OF TREATING NEOPLASIAS” (PARANTA BIOSCIENCES LIMITED, priority 2015, published 2020).

“Also recorded” adds a separate entry of the source.

The subject of test [1] is A549 lung adenocarcinoma cells. As to the kind of experiment: Sensitization of cells to platinum/alkylating agent with TGFBR1 and ACVR1B inhibitor. The class given is cell-based, human. The method, then:
10,000 cells per well were plated in to a 96 well plate. […] Plates are left to incubate for 3 days with an Alamar Blue reading performed at end point.
(§1) 5000 cells per well were plated in quadruplicates in RPMI with 1% heat-inactivated NCS (HiNCS) and Glutamax and allowed to adhere overnight. Media was then removed and either vehicle or 5 μM SB-505124 was added and incubated for 24 hours. Media was then removed and replaced with media containing increasing concentrations of carboplatin with either vehicle or 5 μM SB-505124. After 3 days of incubation Alamar Blue was added and plates were incubated for 2.5 hours before being read using Fluostar Optima Plate Reader.

In another test the test system is NCI-H358. As to the kind of experiment: Sensitization of cells to platinum with TGFBR1 and ACVR1B inhibitor. Conditions: NCI-H358, 5 μM SB-505124 pre-treatment 24 hours, then carboplatin 3 days. Format: cell-based, human. The method, then: as §1
The next test has as its system TAK1. In words: Western blot of phospho-TAK1. The class given is cell-based, human. As to the method: Cell lysates were prepared using RIPA buffer with the addition of Halt Protease and Phosphatase Inhibitor Cocktails. Gel electrophoresis and transfer was performed using the BioRad MiniProtean System according to manufacturer's instructions. Phospho-TAK1 was detected using the combination of Rabbit anti-Phospho-TAK1 and anti-Rabbit IgG, HRP linked primary and secondary antibodies respectively.

Test [2] relates to A549 lung adenocarcinoma cell line. In words: Innate platinum responsiveness, Alamar Blue viability over carboplatin concentrations. The class given is cell-based, human. The conditions noted are these: chemonaive A549, 3 days. The method, then:
The A549 lung adenocarcinoma cell line was originally derived from a smoker prior to treatment with chemotherapy. This chemonaive cell line carrying a common KRAS mutation was chosen as the primary cell line for modelling innate platinum responsiveness. Platinum responsiveness of A549 lung adenocarcinoma cell line was assessed against a wide range of carboplatin concentrations. […] 10,000 cells per well were plated in to a 96 well plate. […] Plates are left to incubate for 3 days with an Alamar Blue reading performed at end point. Curves of cell death in response to the respective alkylating agent were generated by graphing fluorescence (as a measure of cell viability) vs the alkylating agent concentration.
Background: The colour change of resazurin is a common sign of viable cells or microbes.

The test system of the next test is LX22CL cells. Described as above. The conditions noted are these: chemonaive SCLC line LX22CL, 3 days. The class given is cell-based, human.
For test [3], the system named is A549 lung adenocarcinoma cells. In words: DNA damage response, γH2AX confocal immunofluorescence. The conditions noted are these: 24 hr carboplatin, increasing concentrations. The class given is cell-based, human. As to the method: DNA damage induced by platinum was visualised by confocal immunofluorescence microscopy. A549 lung adenocarcinoma cells were treated with appropriate primary and secondary antibodies to visualise γH2AX and the DNA counterstain DAPI following 24 hr treatment with increasing concentrations of carboplatin.

For the next test, the system named is A549 flank xenografts. As to the kind of experiment: In vivo modelling of platinum resistance, xenograft. Conditions: carboplatin 60 mg/kg day 0 or 2 μg FST day −1, +1, +3, +5, intraperitoneally. The arrangement: species or system athymic nude mice. As to the method:
Follistatin (FST) is a molecule that is known for its role in regulating the activities of TGFβ superfamily members, including activin and GDF11, both of which were identified as important players in chemoresistance of non-small cell lung carcinoma (NSCLC) cells (see Example 2). Therefore, the effects of FST on inducing sensitization of NSCLC cells to platinum therapy were assessed in an in vivo xenograft model. Athymic nude mice bearing A549 flank xenografts were treated with combinations of vehicle control, 60 mg/kg carboplatin on day 0, and/or 2 μg FST on day -1, +1, +3 and +5. Five mice were randomized in to each of the treatment groups and treatments started when the tumour size was 200 mm^3. Tumour volumes were measured daily and the animals were culled when the tumour size reached over 500 mm^3. Athymic nude mice bearing A549 flank xenografts were treated with combinations of vehicle control, 60 mg/kg carboplatin on day 0, and/or 2 μg FST on day -1, +1, +3 and +5 administered intraperitoneally. Recombinant human Follistatin 288 (FST) was used in all experiments. FST was provided by […] Biosciences Ltd.

For test [4] the following is noted: background statement; cited from earlier work.

Turning to `Cc1cccc(-c2[nH]c(C(C)(C)C)nc2-c2ccc3c(c2)OCO3)n1` [SB-505124], the “sensitization to platinum (carboplatin)” value is “induced sensitization to platinum; also recorded: sensitized” in test [1] (A549, 5 μM SB-505124 pre-treatment 24 hours, then carboplatin 3 days) and “showed sensitization to platinum; also recorded: sensitized” in the test with NCI-H358. The sensitization to busulfan entry in test [1] (A549, SB-505124 pre-treatment then busulfan range) is on record as “showed sensitization”. Further, the sensitization to cisplatin entry in test [1] (A549, SB-505124 pre-treatment then cisplatin range) is given as “showed sensitization”. Besides, the “activation of TAK1 (phosphorylated TAK1 level)” value in the test on TAK1 (A549 and NCI-H358 cells, SB-505124 pre-treatment then carboplatin) was “inhibited the activation of TAK1”.

As to `N.N.O=C([O-])C1(C(=O)[O-])CCC1.[Pt+2]` [carboplatin], the results for the “platinum responsiveness (survival against carboplatin concentration)” value (in test [2]; in the test with LX22CL cells) were “exhibits an active resistance mechanism” and “shows sensitivity to carboplatin”, respectively. Besides, the “DNA damage (γH2AX)” value in test [3] is “effect DNA damage, at much lower concentrations than is required to induce cell death”. Moreover, the “phosphorylated TAK1 (activated form) levels” value in the test with TAK1 (cells treated with carboplatin) is “upregulated”. For the same molecule, the “tumour growth, agent alone” value with A549 flank xenografts is on record as “did not affect tumour growth”.

With `N.N.[Cl][Pt][Cl]` [trans-DDP, trans-diamminedichloroplatinum (II)], in test [4], the activity against tumours entry was “ineffective against tumours”.
